Test system: human engineered cardiac tissues (human iPSC derived cardiomyocytes co-cultured with human cardiac fibroblasts)
Test: Drug testing of engineered cardiac tissues in Biowire II 96-well plate under electrical pacing (contractile dynamics by wire displacement)
Type: cell-based
Conditions: day 19 tissues, n=2 (FIG. 7H)
Protocol: To generate cardiac tissues, human iPSC derived cardiomyocytes co-cultured with human cardiac fibroblasts were seeded with hydrogel in the 96-well plate device. Tissue compaction in the first seven days was observed (FIG. 7A, FIG. 7B), with dramatic change in the first two days followed by stabilization after day 3. Electrical field stimulation of cardiac tissues was initiated at day 7 and continued for the additional 12 days. […] Thapsigargin (50×10^-6 m), an inhibitor of sarcoplasmic reticulum function in cardiomyocytes, was added in the presence of electrical pacing (1.5 Hz), resulting in a prolonged tissue contraction and relaxation time (FIG. 7H). […] Predominantly ventricular cardiomyocytes (CMs) were derived from the hiPSC line BJ1D, using monolayer differentiation protocols as previously described. At day 21 of differentiation, cardiomyocytes were disassociated into single cells with previously established methods. Briefly, 1 mg mL^-1 of collagenase type II (Worthington, LS004205) in Hank's Balanced Salt Solution was added to the monolayer cardiomyocyte cultures and incubated overnight at room temperature. The disassociated cells were mixed with cardiac fibroblasts (Lonza, NHCF-V) in a 10:1 cell number ratio. The mixed cells were pelleted and remixed in collagen hydrogel at 5.5×10^7 cells mL^-1. The cell-gel mixture was seeded at […] per microwell. A droplet of media was placed on the wall of the well to keep the moisture until gelation was complete. The plate was incubated at 37° C. and 5% CO2 for 10 min followed by media addition. […] Average tissue width and width of the tissue (Tw), attachment site to the polymer sensor were measured using bright field images at the relaxed state. Passive displacement of polymer sensors was assessed in blue channel. […] The final readouts for the total and passive forces were interpolated according to the Tw and custom tip sizes. […] With built-in force sensor and electrodes, tissues were able to be assessed in situ in terms of their contractile dynamics and drug responses. […] The videos were analyzed using the custom MATLAB software. […]

[1] = 50×10^−6 m, electrical pacing 1.5 Hz, video 15 min after addition

C/C=C(/C)C(=O)O[C@H]1C(C)=C2[C@H]([C@@H]1OC(=O)CCCCCCC)[C@@](C)(OC(C)=O)C[C@H](OC(=O)CCC)[C@@]1(O)[C@H]2OC(=O)[C@@]1(C)O [Thapsigargin]
tissue contraction time [1]: prolonged | tissue relaxation time [1]: prolonged | frequency of tissue beating (thapsigargin 50 µM, constant stimulation frequency 1.5 Hz): decreased by half
